The values below come from ChEMBL document CHEMBL5331117, “X-Ray Conformation and Structure-Activity Relationships of MA026, a Reversible Tight Junction Opener” (J Med Chem, 2023).

The structures appear in SMILES notation.

One assay relates to MDCK-II. Kind of assay: Induction of claudin-1 mediated tight junction opening in MDCK-II cells assessed as increase in FITC-conjugated dextran incubated for 5 hrs relative to control. It is filed as cell-based. Also noted: concentration or dose not given beside the values. As to conditions: Canis lupus familiaris.
On to `CCCCCCC(=O)N[C@@H](CC(C)C)C(=O)N[C@H](CCC(=O)O)C(=O)N[C@H](CCC(N)=O)C(=O)N[C@@H](C(=O)N[C@H](CC(C)C)C(=O)N[C@@H](CCC(N)=O)C(=O)N[C@@H]1COC(=O)[C@H]([C@@H](C)CC)NC(=O)[C@@H](CCC(N)=O)NC(=O)[C@H](CC(C)C)NC(=O)[C@H](CC(C)C)NC(=O)[C@@H](CCC(N)=O)NC(=O)[C@@H](CC(C)C)NC(=O)[C@@H](C(C)C)NC1=O)C(C)C`, for which the Activity was -2.8%.
Still for that read-out and setting: under `CCCCCCCCCCCCC(=O)N[C@@H](CC(C)C)C(=O)N[C@H](CCC(=O)O)C(=O)N[C@H](CCC(N)=O)C(=O)N[C@@H](C(=O)N[C@H](CC(C)C)C(=O)N[C@@H](CCC(N)=O)C(=O)N[C@@H]1COC(=O)[C@H]([C@@H](C)CC)NC(=O)[C@@H](CCC(N)=O)NC(=O)[C@H](CC(C)C)NC(=O)[C@H](CC(C)C)NC(=O)[C@@H](CCC(N)=O)NC(=O)[C@@H](CC(C)C)NC(=O)[C@@H](C(C)C)NC1=O)C(C)C` stands 33.3%; under `CCCCCCC[C@@H](O)CC(=O)N[C@@H](CC(C)C)C(=O)N[C@H](CCC(=O)O)C(=O)N[C@H](CCC(N)=O)C(=O)N[C@@H](C(=O)N[C@H](CC(C)C)C(=O)N[C@@H](CCC(N)=O)C(=O)N[C@@H]1COC(=O)[C@H]([C@@H](C)CC)NC(=O)[C@@H](CCC(N)=O)NC(=O)[C@H](CC(C)C)NC(=O)[C@H](C)NC(=O)[C@@H](CCC(N)=O)NC(=O)[C@@H](CC(C)C)NC(=O)[C@@H](C(C)C)NC1=O)C(C)C`, 12.7%; under `CCCCCCCCCC(=O)N[C@@H](CC(C)C)C(=O)N[C@H](CCC(=O)O)C(=O)N[C@H](CCC(N)=O)C(=O)N[C@H](C(=O)N[C@H](CC(C)C)C(=O)N[C@@H](CCC(N)=O)C(=O)N[C@@H]1COC(=O)[C@H]([C@@H](C)CC)NC(=O)[C@@H](CCC(N)=O)NC(=O)[C@H](CC(C)C)NC(=O)[C@H](CC(C)C)NC(=O)[C@@H](CCC(N)=O)NC(=O)[C@@H](CC(C)C)NC(=O)[C@@H](C(C)C)NC1=O)C(C)C`, 8.6%.
The same measure, in the same setting: under `CCCCCCCCCC(=O)N[C@@H](CC(C)C)C(=O)N[C@H](CCC(=O)O)C(=O)N[C@H](CCC(N)=O)C(=O)N[C@@H](C(=O)N[C@H](CC(C)C)C(=O)N[C@@H](CCC(N)=O)C(=O)N[C@@H]1COC(=O)[C@@H]([C@@H](C)CC)NC(=O)[C@@H](CCC(N)=O)NC(=O)[C@H](CC(C)C)NC(=O)[C@H](CC(C)C)NC(=O)[C@@H](CCC(N)=O)NC(=O)[C@@H](CC(C)C)NC(=O)[C@@H](C(C)C)NC1=O)C(C)C` stands 18.3%; under `CCCCCCCCCC(=O)N[C@@H](CC(C)C)C(=O)N[C@H](CCC(=O)O)C(=O)N[C@H](CCC(N)=O)C(=O)N[C@@H](C(=O)N[C@H](CC(C)C)C(=O)N[C@@H](CCC(N)=O)C(=O)N[C@@H]1COC(=O)[C@H]([C@@H](C)CC)NC(=O)[C@@H](CCC(N)=O)NC(=O)[C@@H](CC(C)C)NC(=O)[C@H](CC(C)C)NC(=O)[C@@H](CCC(N)=O)NC(=O)[C@@H](CC(C)C)NC(=O)[C@@H](C(C)C)NC1=O)C(C)C`, -2.3%.
Still for that read-out and setting: under `CCCCCCC[C@@H](O)CC(=O)N[C@@H](CC(C)C)C(=O)N[C@H](CCC(=O)O)C(=O)N[C@H](CCC(N)=O)C(=O)N[C@H](C)C(=O)N[C@H](CC(C)C)C(=O)N[C@@H](CCC(N)=O)C(=O)N[C@@H]1COC(=O)[C@H]([C@@H](C)CC)NC(=O)[C@@H](CCC(N)=O)NC(=O)[C@H](CC(C)C)NC(=O)[C@H](CC(C)C)NC(=O)[C@@H](CCC(N)=O)NC(=O)[C@@H](CC(C)C)NC(=O)[C@@H](C(C)C)NC1=O` stands 14.4%; under `CCCCCCC[C@@H](O)CC(=O)N[C@@H](CC(C)C)C(=O)N[C@H](CCC(=O)O)C(=O)N[C@H](CCC(N)=O)C(=O)N[C@@H](C(=O)N[C@H](CC(C)C)C(=O)N[C@@H](CCC(N)=O)C(=O)N[C@@H]1COC(=O)[C@H](C)NC(=O)[C@@H](CCC(N)=O)NC(=O)[C@H](CC(C)C)NC(=O)[C@H](CC(C)C)NC(=O)[C@@H](CCC(N)=O)NC(=O)[C@@H](CC(C)C)NC(=O)[C@@H](C(C)C)NC1=O)C(C)C`, 0.2%.
For `CC[C@H](C)[C@@H]1NC(=O)[C@@H](CCC(N)=O)NC(=O)[C@H](CC(C)C)NC(=O)[C@H](CC(C)C)NC(=O)[C@@H](CCC(N)=O)NC(=O)[C@@H](CC(C)C)NC(=O)[C@@H](C(C)C)NC(=O)[C@H](NC(=O)[C@H](CCC(N)=O)NC(=O)[C@@H](CC(C)C)NC(=O)[C@H](NC(=O)[C@@H](CCC(N)=O)NC(=O)[C@@H](CCC(=O)O)NC(=O)[C@H](CC(C)C)NC(=O)CCCC(C)C)C(C)C)COC1=O`, the Activity came out at 2.6%.
For the molecule `CCCCCCC[C@@H](O)CC(=O)N[C@@H](CC(C)C)C(=O)N[C@H](CCC(=O)O)C(=O)N[C@H](CCC(N)=O)C(=O)N[C@@H](C(=O)N[C@H](CC(C)C)C(=O)N[C@@H](CCC(N)=O)C(=O)N[C@@H]1COC(=O)[C@H]([C@@H](C)CC)NC(=O)[C@@H](CCC(N)=O)NC(=O)[C@H](C)NC(=O)[C@H](CC(C)C)NC(=O)[C@@H](CCC(N)=O)NC(=O)[C@@H](CC(C)C)NC(=O)[C@@H](C(C)C)NC1=O)C(C)C`, the Activity worked out at 9.8%.
On the same count and under the same terms, then `CCCCCCC[C@@H](O)CC(=O)N[C@@H](C)C(=O)N[C@H](CCC(=O)O)C(=O)N[C@H](CCC(N)=O)C(=O)N[C@@H](C(=O)N[C@H](CC(C)C)C(=O)N[C@@H](CCC(N)=O)C(=O)N[C@@H]1COC(=O)[C@H]([C@@H](C)CC)NC(=O)[C@@H](CCC(N)=O)NC(=O)[C@H](CC(C)C)NC(=O)[C@H](CC(C)C)NC(=O)[C@@H](CCC(N)=O)NC(=O)[C@@H](CC(C)C)NC(=O)[C@@H](C(C)C)NC1=O)C(C)C`, with 31.8%; and `CCCCCCCCCC(=O)N[C@@H](CC(C)C)C(=O)N[C@H](CCC(=O)O)C(=O)N[C@H](CCC(N)=O)C(=O)N[C@@H](C(=O)N[C@H](CC(C)C)C(=O)N[C@@H](CCC(N)=O)C(=O)N[C@H]1COC(=O)[C@H]([C@@H](C)CC)NC(=O)[C@@H](CCC(N)=O)NC(=O)[C@H](CC(C)C)NC(=O)[C@H](CC(C)C)NC(=O)[C@@H](CCC(N)=O)NC(=O)[C@@H](CC(C)C)NC(=O)[C@@H](C(C)C)NC1=O)C(C)C`, with 2.3%.

The same assay, now with this note: Canis lupus familiaris, filed as opener.
For `CCCCCCCCCC(=O)N[C@H](CC(C)C)C(=O)N[C@H](CCC(=O)O)C(=O)N[C@H](CCC(N)=O)C(=O)N[C@@H](C(=O)N[C@H](CC(C)C)C(=O)N[C@@H](CCC(N)=O)C(=O)N[C@@H]1COC(=O)[C@H]([C@@H](C)CC)NC(=O)[C@@H](CCC(N)=O)NC(=O)[C@H](CC(C)C)NC(=O)[C@H](CC(C)C)NC(=O)[C@@H](CCC(N)=O)NC(=O)[C@@H](CC(C)C)NC(=O)[C@@H](C(C)C)NC1=O)C(C)C`, the Activity worked out at 56.8%.
Turning to `CCCCCCC[C@@H](O)CC(=O)N[C@@H](CC(C)C)C(=O)N[C@H](CCC(=O)O)C(=O)N[C@H](CCC(N)=O)C(=O)N[C@@H](C(=O)N[C@H](CC(C)C)C(=O)N[C@@H](C)C(=O)N[C@@H]1COC(=O)[C@H]([C@@H](C)CC)NC(=O)[C@@H](CCC(N)=O)NC(=O)[C@H](CC(C)C)NC(=O)[C@H](CC(C)C)NC(=O)[C@@H](CCC(N)=O)NC(=O)[C@@H](CC(C)C)NC(=O)[C@@H](C(C)C)NC1=O)C(C)C`, the Activity turned out to be 94.8%.
Still for that read-out and setting: under `CCCCCCC[C@@H](O)CC(=O)N[C@@H](CC(C)C)C(=O)N[C@H](CCC(=O)O)C(=O)N[C@H](CCC(N)=O)C(=O)N[C@@H](C(=O)N[C@H](CC(C)C)C(=O)N[C@@H](CCC(N)=O)C(=O)N[C@@H]1COC(=O)[C@H]([C@@H](C)CC)NC(=O)[C@@H](CCC(N)=O)NC(=O)[C@H](CC(C)C)NC(=O)[C@H](CC(C)C)NC(=O)[C@@H](C)NC(=O)[C@@H](CC(C)C)NC(=O)[C@@H](C(C)C)NC1=O)C(C)C` stands 85.3%.
